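Step 1: Grow cells in 96-well plates. Step 2: Expose to compound for 48 hours at 5 concentrations. Step 3: Interpolate endpoints linearly; if unreached, use highest concentration. At the TGI there is no net growth.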
What was measured:
Experiment in all cases: NCI tumour cell line growth inhibition, 48 h
[1] = tested on: 786-0 renal
[2] = tested on: A498 renal
[3] = tested on: A549 NSCLC
[4] = tested on: ACHN renal
[5] = tested on: CAKI-1 renal
[6] = tested on: CCRF-CEM leukemia
[7] = tested on: COLO 205 colon
[8] = tested on: DLD-1 colon
[9] = tested on: DMS 114 small cell lung
[10] = tested on: DMS 273 small cell lung
[11] = tested on: EKVX NSCLC
[12] = tested on: HCT-116 colon
[13] = tested on: HCT-15 colon
[14] = tested on: HL-60(TB) leukemia
[15] = tested on: HOP-18 NSCLC
[16] = tested on: HOP-62 NSCLC
[17] = tested on: HOP-92 NSCLC
[18] = tested on: HT29 colon
[19] = tested on: IGROV1 ovarian
[20] = tested on: K-562 leukemia
[21] = tested on: KM12 colon
[22] = tested on: KM20L2 colon
[23] = tested on: LXFL 529 NSCLC
[24] = tested on: M14 melanoma
[25] = tested on: M19-MEL melanoma
[26] = tested on: MALME-3M melanoma
[27] = tested on: MOLT-4 leukemia
[28] = tested on: NCI-H226 lung
[29] = tested on: NCI-H23 lung
[30] = tested on: NCI-H460 lung
[31] = tested on: NCI-H522 lung
[32] = tested on: OVCAR-3 ovarian
[33] = tested on: OVCAR-4 ovarian
[34] = tested on: OVCAR-8 ovarian
[35] = tested on: RPMI-8226 leukemia
[36] = tested on: SF-268 CNS
[37] = tested on: SF-295 CNS
[38] = tested on: SF-539 CNS
[39] = tested on: SK-MEL-2 melanoma
[40] = tested on: SK-MEL-28 melanoma
[41] = tested on: SK-MEL-5 melanoma
[42] = tested on: SK-OV-3 ovarian
[43] = tested on: SN12C renal
[44] = tested on: SNB-19 CNS
[45] = tested on: SNB-75 CNS
[46] = tested on: SNB-78 CNS
[47] = tested on: SR leukemia
[48] = tested on: SW-620 colon
[49] = tested on: TK-10 renal
[50] = tested on: U251 CNS
[51] = tested on: UACC-257 melanoma
[52] = tested on: UACC-62 melanoma
[53] = tested on: UO-31 renal
[54] = tested on: XF 498 CNS
[55] = tested on: HCC-2998 colon
[56] = tested on: OVCAR-5 ovarian
[57] = tested on: RXF 393 renal
[58] = tested on: RXF-631 renal

Measured: TGI

N#CC(N)(C(=O)CCC(=O)Nc1cccc(Cl)c1)c1ccc(Cl)cc1 (stereo unspecified)
> 100 µM: [1] | [2] | [3] | [4] | [5] | [6] | [7] | [8] | [9] | [10] | [11] | [12] | [13] | [14] | [15] | [16] | [17] | [18] | [19] | [20] | [21] | [22] | [23] | [24] | [25] | [26] | [27] | [28] | [29] | [30] | [31] | [32] | [33] | [34] | [35] | [36] | [37] | [38] | [39] | [40] | [41] | [42] | [43] | [44] | [45] | [46] | [47] | [48] | [49] | [50] | [51] | [52] | [53] | [54]

CC(C)(C)CC(C)(C)c1cc2c(O)c(c1)Cc1cc(C(C)(C)CC(C)(C)C)cc(c1O)Cc1cc(C(C)(C)CC(C)(C)C)cc(c1O)Cc1cc(C(C)(C)CC(C)(C)C)cc(c1O)C2
> 100 µM: [1] | [3] | [4] | [6] | [7] | [8] | [9] | [10] | [11] | [55] | [12] | [13] | [14] | [16] | [17] | [18] | [19] | [20] | [21] | [22] | [23] | [24] | [25] | [26] | [27] | [29] | [30] | [31] | [32] | [33] | [56] | [34] | [35] | [57] | [58] | [36] | [37] | [38] | [39] | [40] | [41] | [43] | [44] | [45] | [46] | [48] | [49] | [50] | [51] | [52] | [53] | [54]

Source: PubChem BioAssay (NCI)
